Assay results: patent US10106539B2, “Spiro-indolines for the treatment and prophylaxis of respiratory syncytial virus infection (RSV)” (REVIRAL LIMITED, priority 2014, dated 2018)
Like-named read-outs stand apart in the source and are kept apart here.

Key:
[1] = Liver microsomal stability, human; assay type: in vitro ADME; conditions: both sexes, pH 7.4, human liver microsomes
Procedure: Microsomal Incubation: Experimental Procedure
Pooled human liver microsomes (pooled male and female), pooled rat liver microsomes (male Sprague Dawley rats) and pooled dog liver microsomes (male Beagle dog) are purchased from a reputable commercial supplier and stored at −80° C. prior to use.
Microsomes (final protein concentration 0.5 mg/mL), 0.1 M phosphate buffer pH 7.4 and test compound (final substrate concentration 3 μM; final DMSO concentration 0.25%) are pre-incubated at 37° C. prior to the addition of NADPH (final concentration 1 mM) to initiate the reaction. The final incubation volume is 50 μL. A control incubation is included for each compound tested where 0.1 M phosphate buffer pH 7.4 is added instead of NADPH (minus NADPH). Two control compounds are included with each species. All incubations are performed singularly for each test compound.
Compounds are incubated for 0, 5, 15, 30 and 45 min. The control (minus NADPH) is incubated for 45 min only. The reactions are stopped by transferring 25 μL of incubate to 50 μL methanol at the appropriate time points. The termination plates are centrifuged at 2,500 rpm for 20 min at 4° C. to precipitate the protein. Following protein precipitation, the sample supernatants are combined in cassettes of up to 4 compounds, internal standard is added and samples analysed by LC-MS/MS. From a plot of ln peak area ratio (compound peak area/internal standard peak area) against time, the gradient of the line is determined. Subsequently, half-life and intrinsic clearance are calculated

human P-gp (MDR1) = assay: MDR1-MDCK permeability; assay type: in vitro ADME; conditions: dog
Procedure: MDR1-MDCK Permeability: Experimental Procedure
MDR1-MDCK cells obtained from the NIH (Rockville, Md., USA) are used between passage numbers 6-30. Cells are seeded onto Millipore Multiscreen Transwell plates at 3.4×10^5 cells/cm2. The cells are cultured in DMEM and media is changed on day 3. On day 4 the permeability study is performed. Cell culture and assay incubations are carried out at 37° C. in an atmosphere of 5% CO2 with a relative humidity of 95%. On the day of the assay, the monolayers are prepared by rinsing both basolateral and apical surfaces twice with Hanks Balanced Salt Solution (HBSS) at the desired pH warmed to 37° C. Cells are then incubated with HBSS at the desired pH in both apical and basolateral compartments for 40 min to stabilise physiological parameters.
The dosing solutions are prepared by diluting test compound with assay buffer to give a final test compound concentration of 10 μM (final DMSO concentration of 1% v/v). The fluorescent integrity marker lucifer yellow is also included in the dosing solution. Analytical standards are prepared from test compound DMSO dilutions and transferred to buffer, maintaining a 1% v/v DMSO concentration.
For assessment of A-B permeability, HBSS is removed from the apical compartment and replaced with test compound dosing solution. The apical compartment insert is then placed into a companion plate containing fresh buffer (containing 1% v/v DMSO). For assessment of B-A permeability, HBSS is removed from the companion plate and replaced with test compound dosing solution. Fresh buffer (containing 1% v/v DMSO) is added to the apical compartment insert, which is then placed into the companion plate.
At 60 min the apical compartment inserts and the companion plates are separated and apical and basolateral samples diluted for analysis.
Test compound permeability is assessed in duplicate. Compounds of known permeability characteristics are run as controls on each assay plate.
Test and control compounds are quantified by LC-MS/MS cassette analysis using an 8-point calibration with appropriate dilution of the samples. The starting concentration (C0) is determined from the dosing solution and the experimental recovery calculated from C0 and both apical and basolateral compartment concentrations.
The integrity of the monolayer throughout the experiment is checked by monitoring lucifer yellow permeation using fluorimetric analysis. Lucifer yellow permeation is high if monolayers have been damaged.

[2] = Plasma protein binding (equilibrium dialysis), rat; assay type: in vitro ADME; conditions: plasma (100%)
Procedure: (§1) Protein Binding Determination: Experimental Procedure
(§2) Solutions of test compound (5 μM, 0.5% final DMSO concentration) are prepared in buffer (pH 7.4) and 100% species-specific plasma. The experiment is performed using equilibrium dialysis with the two compartments separated by a semi-permeable membrane. The buffer solution is added to one side of the membrane and the plasma solution to the other side. After equilibration, samples are taken from both sides of the membrane. Standards are prepared in plasma and buffer and are incubated at 37° C.
(§3) Test compound incubations are performed in duplicate. A control compound is included in each experiment.
(§4) The solutions for each batch of compounds are combined into two groups (protein-free and protein-containing), then cassette analysed by LC-MS/MS using two sets of calibration standards for protein-free (7 points) and protein-containing solutions (6 points).

[3] = Plasma protein binding (equilibrium dialysis), dog; assay type: in vitro ADME; conditions: plasma (100%)
Procedure: as §1, §2, §3, §4

[4] = In vivo pharmacokinetics in rats (IV and PO); design: species or system male Sprague Dawley rats; conditions: rat; for Vd: 1 mg/kg (IV)
Procedure: The pharmacokinetics of compounds were studied in vivo in male Sprague Dawley rats at doses of 1 mg/kg (IV) and 10 mg/kg (PO).
Sprague Dawley rats were treated with experimental compounds via intravenous and oral administration. Three animals for each route of administration were used with serial blood sampling at ten time points post dosing of compound.
Animals were weighed and used if between 200-250 g. Serial blood samples were collected at 0.02, 0.08, 0.25, 0.50, 1, 2, 4, 6, 8 and 24 hours post dosing. […] Blood samples were delivered into an anticoagulant (sodium heparin) and centrifuged at 4° C. Plasma samples were subsequently stored frozen at less than −20° C. prior to analysis.
Following protein precipitation with acetonitrile, samples were analysed with tandem liquid chromatography/mass spectrometry using electrospray ionisation. A full matrix curve with internal standards was employed and PK parameters were calculated.
In a similar manner, oral administration was performed by gavage at doses of 5 or 10 mg/kg at a concentration of 5 mg/ml in 1% Methyl cellulose (Sigma M7140), 0.1% Tween 80 in water. Serial samples were taken as described above.
RV039 was administered at doses of 1 mg/kg (IV) and 5 mg/kg (PO).

| SMILES | half-life at 3 μM ([1]; Comparative Example 2, read-out: Liver Microsomal Stability T1/2, human (Table 5)) [h] | Papp A→B at 60 min, 10 μM (human P-gp (MDR1)) [×10⁻⁶ cm/s] | Papp B→A at 60 min, 10 μM (human P-gp (MDR1)) [×10⁻⁶ cm/s] | fraction unbound at 5 μM ([2]; pH 7.4, Comparative Example 2, read-out: PPB fraction unbound, rat (Table 5)) | fraction unbound at 5 μM ([3]; pH 7.4, Comparative Example 2, read-out: PPB fraction unbound, dog (Table 5)) | bioavailability ([4]; male, Sprague Dawley, plasma, rats, 1 mg/kg (IV) and 5 mg/kg (PO), Comparative Example 3, read-out: Bioavailability (Table 6)) [%] | Vd ([4]; male, Sprague Dawley, plasma, rats, Comparative Example 3, read-out: Volume of distribution (Table 6)) [L/kg] | Tmax ([4]; male, Sprague Dawley, plasma, rats, 5 mg/kg (PO), Comparative Example 3, read-out: Tmax PO (Table 6)) [h] | half-life at 3 μM ([1]; 3 μM compound, read-out: Liver Microsomal Stability T1/2, human) [h] | Papp A→B at 60 min, 10 μM (human P-gp (MDR1); A-B, 10 μM, 60 min, read-out: Permeability (Human Pgp transfected) MDCK Papp A-B) [×10⁻⁶ cm/s] | Papp B→A at 60 min, 10 μM (human P-gp (MDR1); B-A, 10 μM, 60 min, read-out: Permeability (Human Pgp transfected) MDCK Papp B-A) [×10⁻⁶ cm/s] | fraction unbound at 5 μM ([2]; pH 7.4, 5 μM, read-out: PPB fraction unbound, rat) | fraction unbound at 5 μM ([3]; pH 7.4, 5 μM, read-out: PPB fraction unbound, dog) | bioavailability ([4]; in vivo, male Sprague Dawley rats, 1 mg/kg (IV) and 10 mg/kg (PO), read-out: Bioavailability) [%] | Vd ([4]; in vivo, male Sprague Dawley rats, read-out: Volume of distribution) [L/kg] | Tmax ([4]; in vivo, male Sprague Dawley rats, 10 mg/kg (PO), read-out: Tmax PO) [h] |
| --- | --- | --- | --- | --- | --- | --- | --- | --- | --- | --- | --- | --- | --- | --- | --- | --- |
| CC(C)CCn1c(CN2C(=O)C3(CC3)c3ccccc32)nc2cc(CN)ccc21 [RV039, 1′-((5-(aminomethyl)-1-isopentyl-1H-benzo[d]imidazol-2-yl)methyl)spiro[cyclopropane-1,3′-indolin]-2′-one, reference compound] | 0.0833 | 0.42 | 49 | 0.1 | 0.1 | 4.5 | 47 | 7.3 |  |  |  |  |  |  |  |  |
| NCc1ccc2c(c1)nc(CN1C(=O)C3(CC3)c3ccc(F)cc31)n2CCCC(F)(F)F [Example 1, 1′-{[5-(Aminomethyl)-1-(4,4,4-trifluorobutyl)-1H-1,3-benzodiazol-2-yl]methyl}-6′-fluoro-1′,2′-dihydrospiro[cyclopropane-1,3′-indole]-2′-one] |  |  |  |  |  |  |  |  | 0.533 | 0.5 | 73 | 0.52 | 0.27 | 42 | 22 | 2.7 |
